Earlier results as cited in patent US20050048573A1, “PDE5A crystal structure and uses” (Plexxikon, Inc., priority 2003, published 2005).

Target: PDE5 (Bos taurus, UniProt Q28156)
Conditions: allosteric sites; read-out: KD of PDE5 for binding cGMP in the allosteric sites

## Nc1nc2c(ncn2[C@@H]2O[C@@H]3COP(=O)(O)O[C@H]3[C@H]2O)c(=O)[nH]1 [cGMP]
  Kd: ~200 nM
